Experimental data taken from ChEMBL document CHEMBL5113409, “Design and synthesis of proteolysis targeting chimeras (PROTACs) as an EGFR degrader based on CO-1686” (Eur J Med Chem, 2022).
pIC50: −log10 of the molar value. Calls of active or inactive are those of the source. The calls are words filed in the database; no cut-off is given here.

Legend:
NCI-H1975 [1] = assay: Induction of cell cycle arrest in human NCI-H1975 cells assessed as accumulation at G2/M phase at 1 uM incubated for 48 hrs by propidium iodide staining based flow cytometry (reference value: 3.68%); assay type: functional
NCI-H1975 [2] = assay: Induction of cell cycle arrest in human NCI-H1975 cells assessed as accumulation at G2/M phase at 0.5 uM incubated for 48 hrs by propidium iodide staining based flow cytometry (reference value: 3.68%); assay type: functional
NCI-H1975 [3] = assay: Induction of cell cycle arrest in human NCI-H1975 cells assessed as accumulation at S phase at 0.25 uM incubated for 48 hrs by propidium iodide staining based flow cytometry (reference value: 37.13%); assay type: functional
NCI-H1975 [4] = assay: Induction of cell cycle arrest in human NCI-H1975 cells assessed as accumulation at S phase at 0.5 uM incubated for 48 hrs by propidium iodide staining based flow cytometry (reference value: 37.13%); assay type: functional
A549 = assay: Anti-proliferative activity against human A549 cells assessed as reduction in cell proliferation incubated for 72 hrs by MTT assay; assay type: functional, cell-based; conditions: A549, 72 h
[5] = target: Epidermal growth factor receptor (Homo sapiens, UniProt P00533, L858R/T790M); assay: Inhibition of EGFR L858R/T790M mutant (unknown origin) incubated for 35 mins by HTRF KinEASE-TK assay
NCI-H1975 [6] = assay: Induction of apoptosis in human NCI-H1975 cells assessed as viable cells level at 0.5 uM incubated for 48 hrs by Annexin-V/propidium iodide staining based biparametric cytofluorometric assay (reference value: 93.9%); assay type: functional
[7] = system: Protein cereblon/Epidermal growth factor receptor (Homo sapiens), P00533+Q96SW2 [L858R,T790M]; assay: Protac activity at CRBN/EGFR L858R/T790M mutant in human NCI-H1975 cells assessed as L858R/T790M mutant degradation at 0.3 uM incubated up to 36 hrs by Western blot analysis; assay type: cell-based; conditions: TDE = time-dependent effect
NCI-H1975 [8] = assay: Induction of apoptosis in human NCI-H1975 cells assessed as viable cells level at 1 uM incubated for 48 hrs by Annexin-V/propidium iodide staining based biparametric cytofluorometric assay (reference value: 93.9%); assay type: functional
NCI-H1975 [9] = assay: Induction of apoptosis in human NCI-H1975 cells assessed as late apoptosis cells level at 0.25 uM incubated for 48 hrs by Annexin-V/propidium iodide staining based biparametric cytofluorometric assay (reference value: 2.46%); assay type: functional
[10] = target: Epidermal growth factor receptor (Homo sapiens, UniProt P00533); assay: Inhibition of wild type EGFR (unknown origin) incubated for 10 mins by HTRF KinEASE-TK assay
PC-9 = assay: Anti-proliferative activity against human PC-9 cells assessed as reduction in cell proliferation incubated for 72 hrs by MTT assay; assay type: functional, cell-based; conditions: PC-9, 72 h
[11] = system: Protein cereblon/Epidermal growth factor receptor (Homo sapiens), P00533+Q96SW2 [L858R,T790M]; assay: Protac activity at CRBN/EGFR L858R/T790M mutant in human NCI-H1975 cells assessed as L858R/T790M mutant degradation incubated for 48 hrs by Western blot analysis relative to untreated control; assay type: cell-based
NCI-H1975 [12] = assay: Induction of apoptosis in human NCI-H1975 cells assessed as viable cells level at 0.25 uM incubated for 48 hrs by Annexin-V/propidium iodide staining based biparametric cytofluorometric assay (reference value: 93.9%); assay type: functional
NCI-H1975 [13] = assay: Induction of cell cycle arrest in human NCI-H1975 cells assessed as accumulation at G0/G1 phase at 1 uM incubated for 48 hrs by propidium iodide staining based flow cytometry (reference value: 59.18%); assay type: functional
NCI-H1975 [14] = assay: Induction of cell cycle arrest in human NCI-H1975 cells assessed as accumulation at G0/G1 phase at 0.5 uM incubated for 48 hrs by propidium iodide staining based flow cytometry (reference value: 59.18%); assay type: functional
NCI-H1975 [15] = assay: Induction of cell cycle arrest in human NCI-H1975 cells assessed as accumulation at G2/M phase at 0.25 uM incubated for 48 hrs by propidium iodide staining based flow cytometry (reference value: 3.68%); assay type: functional
NCI-H1975 [16] = assay: Induction of apoptosis in human NCI-H1975 cells assessed as early apoptosis cells level at 0.5 uM incubated for 48 hrs by Annexin-V/propidium iodide staining based biparametric cytofluorometric assay (reference value: 2.26%); assay type: functional
NCI-H1975 [17] = assay: Induction of cell cycle arrest in human NCI-H1975 cells assessed as accumulation at S phase at 1 uM incubated for 48 hrs by propidium iodide staining based flow cytometry (reference value: 37.13%); assay type: functional
Homo sapiens = species: Homo sapiens; assay: Selectivity index, ratio of IC50 for wild type EGFR (unknown origin) to IC50 for Protein cereblon/Epidermal growth factor receptor L858R/T790M mutant
[18] = system: Protein cereblon/Epidermal growth factor receptor (Homo sapiens), P00533+Q96SW2 [L858R,T790M]; assay: Protac activity at CRBN/EGFR L858R/T790M mutant in human NCI-H1975 cells assessed as L858R/T790M mutant degradation at 3 uM incubated for 48 hrs by Western blot analysis; assay type: cell-based
NCI-H1975 [19] = assay: Induction of apoptosis in human NCI-H1975 cells assessed as late apoptosis cells level at 1 uM incubated for 48 hrs by Annexin-V/propidium iodide staining based biparametric cytofluorometric assay (reference value: 2.46%); assay type: functional
NCI-H1975 [20] = assay: Induction of apoptosis in human NCI-H1975 cells incubated for 48 hrs by Annexin-V/propidium iodide staining based biparametric cytofluorometric assay; assay type: functional, cell-based; conditions: DDE = dose-dependent effect
NCI-H1975 [21] = assay: Induction of apoptosis in human NCI-H1975 cells assessed as early apoptosis cells level at 0.25 uM incubated for 48 hrs by Annexin-V/propidium iodide staining based biparametric cytofluorometric assay (reference value: 2.26%); assay type: functional
[22] = target: Protein cereblon/Epidermal growth factor receptor (Homo sapiens, UniProt P00533+Q96SW2, T790M/L858R); assay: (§1) Protac activity at CRBN/EGFR L858R/T790M mutant in human NCI-H1975 cells assessed as L858R/T790M mutant degradation incubated for 48 hrs by Western blot analysis; assay type: cell-based
[23] = system: Protein cereblon/Epidermal growth factor receptor (Homo sapiens), P00533+Q96SW2 [L858R,T790M]; assay: as §1; assay type: cell-based; conditions: DDE = dose-dependent effect
NCI-H1975 [24] = assay: Induction of apoptosis in human NCI-H1975 cells assessed as necrosis cells level at 0.5 uM incubated for 48 hrs by Annexin-V/propidium iodide staining based biparametric cytofluorometric assay (reference value: 2.46%); assay type: functional
NCI-H1975 [25] = assay: Anti-proliferative activity against human NCI-H1975 cells assessed as reduction in cell proliferation incubated for 72 hrs by MTT assay; assay type: functional, cell-based; conditions: NCI-H1975, 72 h
NCI-H1975 [26] = assay: Induction of apoptosis in human NCI-H1975 cells assessed as early apoptosis cells level at 1 uM incubated for 48 hrs by Annexin-V/propidium iodide staining based biparametric cytofluorometric assay (reference value: 2.26%); assay type: functional
NCI-H1975 [27] = assay: Induction of apoptosis in human NCI-H1975 cells assessed as necrosis cells level at 1 uM incubated for 48 hrs by Annexin-V/propidium iodide staining based biparametric cytofluorometric assay (reference value: 2.46%); assay type: functional
NCI-H1975 [28] = assay: Induction of apoptosis in human NCI-H1975 cells assessed as late apoptosis cells level at 0.5 uM incubated for 48 hrs by Annexin-V/propidium iodide staining based biparametric cytofluorometric assay (reference value: 2.46%); assay type: functional
NCI-H1975 [29] = assay: Induction of cell cycle arrest in human NCI-H1975 cells assessed as accumulation at G0/G1 phase at 0.25 uM incubated for 48 hrs by propidium iodide staining based flow cytometry (reference value: 59.18%); assay type: functional

Compound `C=CC(=O)Nc1cccc(Nc2nc(Nc3ccc(N4CCN(CC(=O)NCCNc5cccc6c5C(=O)N(C5CCC(=O)NC5=O)C6=O)CC4)cc3OC)ncc2C(F)(F)F)c1` (configuration not stated) has an Activity (NCI-H1975 [1]) of 4.8%, an Activity (NCI-H1975 [2]) of 3.72% and an Activity (NCI-H1975 [3]) of 23.89%. The Activity (NCI-H1975 [4]) was 22.57%, the pIC50 (A549) was under 4.00 and the pIC50 [5] was 7.37. The Activity (NCI-H1975 [6]) was 73.3%, the Activity [7] was “Tde” and the Activity (NCI-H1975 [8]) was 58%. It also gave an Activity (NCI-H1975 [9]) of 6.07%, a pIC50 [10] of 6.08 and a pIC50 (PC-9) of 6.12. The Emax [11] was 83%, the Activity (NCI-H1975 [12]) was 89.7% and the Activity (NCI-H1975 [13]) was 77.8%. The Activity (NCI-H1975 [14]) was 73.71%, the Activity (NCI-H1975 [15]) was 4.01% and the Activity (NCI-H1975 [16]) was 6.16%. The Activity (NCI-H1975 [17]) was 17.39%, the Ratio IC50 (Homo sapiens) was 19 and the Activity [18] was “Active”. The Activity (NCI-H1975 [19]) was 39.9%, the Activity (NCI-H1975 [20]) was “Dde” and the Activity (NCI-H1975 [21]) was 2.78%. For the same compound, the DC50 [22] was 356 nM, the Activity [23] was “Dde” and the Activity (NCI-H1975 [24]) was 2.22%. It also gave a pIC50 (NCI-H1975 [25]) of 6.62, an Activity (NCI-H1975 [26]) of 6.63% and an Activity (NCI-H1975 [27]) of 4.71%. The Activity (NCI-H1975 [28]) was 18.3% and the Activity (NCI-H1975 [29]) was 72.1%.
